# Assay results: the kinase profiling compilation of Christmann-Franck et al. (2016)
# Assays:
# Assay in all cases: KINOMEscan competition binding
# Conditions in all cases: compound 10.0 µM
# [1] = target: STK35 (human) (UniProt Q8TDR2)
# [2] = target: FGR (human) (UniProt P09769)
# [3] = target: CDK7 (human) (UniProt P50613)
# [4] = target: MAP4K4 (human) (UniProt O95819)
# [5] = target: RIPK1 (human) (UniProt Q13546)
# [6] = target: CDK8 (human) (UniProt P49336)
# [7] = tested on: EGFR (human), P00533 [L861Q]
# [8] = target: DDR2 (human) (UniProt Q16832)
# [9] = target: JAK2 JH1 catalytic (human) (UniProt O60674)
# [10] = target: STK36 (human) (UniProt Q9NRP7)
# [11] = tested on: ABL1 (human), P00519 [E255K]
# [12] = target: MAPK10 (human) (UniProt P53779)
# [13] = target: TNK1 (human) (UniProt Q13470)
# [14] = target: MAPK9 (human) (UniProt P45984)
# [15] = target: SYK (human) (UniProt P43405)
# [16] = tested on: ABL1 (human), P00519 [Y253F]
# [17] = target: FLT4 (human) (UniProt P35916)
# [18] = tested on: EGFR (human), P00533 [746-750 del]
# [19] = tested on: EGFR (human), P00533 [747-751 del / S ins]
# [20] = target: MERTK (human) (UniProt Q12866)
# [21] = tested on: EIF2AK4 KD2 (human), Q9P2K8 [S808G]
# [22] = target: BMP2K (human) (UniProt Q9NSY1)
# [23] = target: RPS6KA2 KD1 (human) (UniProt Q15349)
# [24] = target: ADCK3 (human) (UniProt Q8NI60)
# [25] = target: TLK2 (human) (UniProt Q86UE8)
# [26] = target: CSNK1D (human) (UniProt P48730)
# [27] = tested on: PIK3CA (human), P42336 [E545K]
# [28] = target: EPHB3 (human) (UniProt P54753)
# [29] = target: BMPR1A (human) (UniProt P36894)
# [30] = target: RPS6KA4 KD2 (human) (UniProt O75676)
# [31] = target: AKT1 (human) (UniProt P31749)
# [32] = target: RPS6KA2 KD2 (human) (UniProt Q15349)
# [33] = target: ULK1 (human) (UniProt O75385)
# [34] = target: GSK3A (human) (UniProt P49840)
# [35] = target: NEK5 (human) (UniProt Q6P3R8)
# [36] = target: MAPKAPK2 (human) (UniProt P49137)
# [37] = target: PLK4 (human) (UniProt O00444)
# [38] = target: PHKG2 (human) (UniProt P15735)
# [39] = target: LATS1 (human) (UniProt O95835)
# [40] = target: MYLK3 (human) (UniProt Q32MK0)
# [41] = target: NEK6 (human) (UniProt Q9HC98)
# [42] = target: EPHA1 (human) (UniProt P21709)
# FLT4 (human), sequence (P35916 whole entry, looked up): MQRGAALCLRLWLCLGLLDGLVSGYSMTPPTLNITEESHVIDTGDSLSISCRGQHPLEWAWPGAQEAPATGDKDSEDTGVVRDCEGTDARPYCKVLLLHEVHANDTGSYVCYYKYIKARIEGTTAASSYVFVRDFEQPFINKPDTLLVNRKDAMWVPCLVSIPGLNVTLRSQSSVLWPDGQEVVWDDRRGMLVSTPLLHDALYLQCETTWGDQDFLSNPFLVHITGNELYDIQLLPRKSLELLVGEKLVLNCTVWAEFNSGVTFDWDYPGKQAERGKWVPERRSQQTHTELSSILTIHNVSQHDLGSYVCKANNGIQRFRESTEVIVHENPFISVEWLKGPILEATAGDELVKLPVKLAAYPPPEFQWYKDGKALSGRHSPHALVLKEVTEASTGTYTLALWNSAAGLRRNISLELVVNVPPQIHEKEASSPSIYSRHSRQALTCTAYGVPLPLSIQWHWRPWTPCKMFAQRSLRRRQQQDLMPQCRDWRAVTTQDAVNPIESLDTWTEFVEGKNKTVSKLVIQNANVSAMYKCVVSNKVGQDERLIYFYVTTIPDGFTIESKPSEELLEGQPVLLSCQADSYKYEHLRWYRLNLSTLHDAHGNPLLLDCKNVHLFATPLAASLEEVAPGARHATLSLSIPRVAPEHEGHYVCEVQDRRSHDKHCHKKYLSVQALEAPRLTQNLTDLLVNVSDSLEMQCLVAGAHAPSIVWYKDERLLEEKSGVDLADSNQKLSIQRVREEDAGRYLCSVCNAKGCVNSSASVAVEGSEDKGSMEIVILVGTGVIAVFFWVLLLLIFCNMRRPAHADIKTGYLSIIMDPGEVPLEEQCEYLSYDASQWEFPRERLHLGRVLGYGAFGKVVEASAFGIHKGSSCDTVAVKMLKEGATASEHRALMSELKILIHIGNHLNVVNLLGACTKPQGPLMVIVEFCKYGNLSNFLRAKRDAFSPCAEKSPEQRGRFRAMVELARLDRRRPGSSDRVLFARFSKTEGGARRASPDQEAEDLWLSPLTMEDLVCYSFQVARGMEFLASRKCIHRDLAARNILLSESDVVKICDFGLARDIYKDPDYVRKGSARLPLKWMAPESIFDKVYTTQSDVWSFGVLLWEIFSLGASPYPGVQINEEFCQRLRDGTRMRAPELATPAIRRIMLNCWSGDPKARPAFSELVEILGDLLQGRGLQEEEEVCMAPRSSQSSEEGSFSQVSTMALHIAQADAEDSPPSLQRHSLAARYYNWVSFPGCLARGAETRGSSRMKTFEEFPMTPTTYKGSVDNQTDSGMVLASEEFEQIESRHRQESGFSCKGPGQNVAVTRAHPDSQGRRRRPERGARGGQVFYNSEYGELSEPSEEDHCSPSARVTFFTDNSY
# MAP4K4 (human), sequence (O95819 whole entry, looked up): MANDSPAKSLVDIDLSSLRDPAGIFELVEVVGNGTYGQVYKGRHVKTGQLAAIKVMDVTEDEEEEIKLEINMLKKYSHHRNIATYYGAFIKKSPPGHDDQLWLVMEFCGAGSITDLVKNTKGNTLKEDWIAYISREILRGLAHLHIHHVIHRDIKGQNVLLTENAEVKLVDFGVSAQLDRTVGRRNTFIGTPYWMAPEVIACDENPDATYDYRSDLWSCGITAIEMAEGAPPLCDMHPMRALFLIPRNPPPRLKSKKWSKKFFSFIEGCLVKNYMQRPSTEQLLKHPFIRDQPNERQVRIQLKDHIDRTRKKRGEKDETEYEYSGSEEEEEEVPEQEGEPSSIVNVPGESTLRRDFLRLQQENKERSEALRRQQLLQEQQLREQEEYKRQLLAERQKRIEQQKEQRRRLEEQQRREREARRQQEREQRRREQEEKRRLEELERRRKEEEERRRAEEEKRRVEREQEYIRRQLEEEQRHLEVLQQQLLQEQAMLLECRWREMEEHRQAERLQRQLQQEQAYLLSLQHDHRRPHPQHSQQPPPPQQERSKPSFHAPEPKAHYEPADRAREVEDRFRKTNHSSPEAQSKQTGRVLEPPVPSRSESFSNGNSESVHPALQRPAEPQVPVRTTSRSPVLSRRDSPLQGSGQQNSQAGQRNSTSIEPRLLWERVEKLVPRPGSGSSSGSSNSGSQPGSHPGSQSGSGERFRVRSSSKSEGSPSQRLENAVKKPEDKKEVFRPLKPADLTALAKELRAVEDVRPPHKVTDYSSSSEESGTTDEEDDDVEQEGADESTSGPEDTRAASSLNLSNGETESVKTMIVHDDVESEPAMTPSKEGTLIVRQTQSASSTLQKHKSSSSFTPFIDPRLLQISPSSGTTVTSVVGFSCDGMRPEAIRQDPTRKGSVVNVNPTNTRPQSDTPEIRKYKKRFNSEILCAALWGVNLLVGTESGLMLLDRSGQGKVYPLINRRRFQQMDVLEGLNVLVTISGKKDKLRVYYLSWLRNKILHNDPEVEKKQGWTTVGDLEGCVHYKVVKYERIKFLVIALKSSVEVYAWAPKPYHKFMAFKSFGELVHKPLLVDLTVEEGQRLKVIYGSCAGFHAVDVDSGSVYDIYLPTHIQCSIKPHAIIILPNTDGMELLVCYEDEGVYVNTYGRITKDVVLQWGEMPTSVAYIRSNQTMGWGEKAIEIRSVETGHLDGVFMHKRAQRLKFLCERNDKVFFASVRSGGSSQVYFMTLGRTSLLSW
# CDK7 (human), sequence (P50613 whole entry, looked up): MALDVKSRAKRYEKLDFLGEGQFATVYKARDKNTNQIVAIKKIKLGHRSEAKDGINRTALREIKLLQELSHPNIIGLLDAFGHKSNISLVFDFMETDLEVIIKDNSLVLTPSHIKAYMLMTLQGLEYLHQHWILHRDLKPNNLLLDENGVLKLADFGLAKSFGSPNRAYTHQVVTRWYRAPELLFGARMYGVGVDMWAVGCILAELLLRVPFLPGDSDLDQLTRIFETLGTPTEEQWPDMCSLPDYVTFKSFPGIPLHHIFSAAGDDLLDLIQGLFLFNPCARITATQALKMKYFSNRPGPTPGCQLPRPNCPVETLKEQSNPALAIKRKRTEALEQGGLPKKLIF
# MAPK10 (human), sequence (P53779 whole entry, looked up): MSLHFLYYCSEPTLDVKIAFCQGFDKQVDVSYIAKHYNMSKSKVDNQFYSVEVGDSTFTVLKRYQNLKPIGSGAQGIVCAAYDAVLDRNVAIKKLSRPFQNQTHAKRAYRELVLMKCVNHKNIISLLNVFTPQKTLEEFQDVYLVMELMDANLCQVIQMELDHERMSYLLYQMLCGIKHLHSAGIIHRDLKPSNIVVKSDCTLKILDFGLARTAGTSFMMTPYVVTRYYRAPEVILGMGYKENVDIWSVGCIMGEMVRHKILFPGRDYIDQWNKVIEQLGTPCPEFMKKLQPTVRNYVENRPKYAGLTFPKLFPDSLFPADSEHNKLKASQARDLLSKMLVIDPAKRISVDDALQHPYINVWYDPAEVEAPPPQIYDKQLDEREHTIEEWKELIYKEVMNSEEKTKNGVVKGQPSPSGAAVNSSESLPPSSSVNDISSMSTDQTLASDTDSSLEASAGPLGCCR
# TNK1 (human), sequence (Q13470 whole entry, looked up): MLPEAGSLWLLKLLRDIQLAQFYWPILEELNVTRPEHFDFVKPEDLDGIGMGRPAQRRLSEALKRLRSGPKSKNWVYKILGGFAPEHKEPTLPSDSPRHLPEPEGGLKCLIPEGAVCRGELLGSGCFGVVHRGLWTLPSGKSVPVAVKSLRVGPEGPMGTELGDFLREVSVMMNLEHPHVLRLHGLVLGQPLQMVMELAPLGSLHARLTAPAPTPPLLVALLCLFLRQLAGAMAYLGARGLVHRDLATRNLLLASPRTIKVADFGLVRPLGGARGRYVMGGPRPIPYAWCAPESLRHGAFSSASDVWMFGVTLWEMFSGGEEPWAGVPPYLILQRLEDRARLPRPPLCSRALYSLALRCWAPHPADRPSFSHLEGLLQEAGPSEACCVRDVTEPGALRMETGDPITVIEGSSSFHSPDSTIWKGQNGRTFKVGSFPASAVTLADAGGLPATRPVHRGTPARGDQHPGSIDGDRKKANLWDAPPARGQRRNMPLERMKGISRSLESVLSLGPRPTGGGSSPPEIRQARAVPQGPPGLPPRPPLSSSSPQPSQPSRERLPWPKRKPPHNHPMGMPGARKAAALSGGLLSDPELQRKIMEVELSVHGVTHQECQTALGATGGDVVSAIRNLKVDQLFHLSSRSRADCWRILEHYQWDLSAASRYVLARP
# MAPK9 (human), sequence (P45984 whole entry, looked up): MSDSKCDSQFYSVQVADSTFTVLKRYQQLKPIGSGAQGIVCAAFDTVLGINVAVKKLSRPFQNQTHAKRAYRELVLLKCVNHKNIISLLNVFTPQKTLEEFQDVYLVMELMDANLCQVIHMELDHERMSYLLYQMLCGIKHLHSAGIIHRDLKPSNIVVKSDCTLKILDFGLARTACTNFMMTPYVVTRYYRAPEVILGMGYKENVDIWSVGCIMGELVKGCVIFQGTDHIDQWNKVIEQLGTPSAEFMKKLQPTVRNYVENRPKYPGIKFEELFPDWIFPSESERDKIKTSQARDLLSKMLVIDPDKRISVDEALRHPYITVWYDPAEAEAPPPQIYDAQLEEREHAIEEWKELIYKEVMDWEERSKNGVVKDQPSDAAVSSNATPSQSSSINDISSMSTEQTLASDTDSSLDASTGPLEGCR
# FGR (human), sequence (P09769 whole entry, looked up): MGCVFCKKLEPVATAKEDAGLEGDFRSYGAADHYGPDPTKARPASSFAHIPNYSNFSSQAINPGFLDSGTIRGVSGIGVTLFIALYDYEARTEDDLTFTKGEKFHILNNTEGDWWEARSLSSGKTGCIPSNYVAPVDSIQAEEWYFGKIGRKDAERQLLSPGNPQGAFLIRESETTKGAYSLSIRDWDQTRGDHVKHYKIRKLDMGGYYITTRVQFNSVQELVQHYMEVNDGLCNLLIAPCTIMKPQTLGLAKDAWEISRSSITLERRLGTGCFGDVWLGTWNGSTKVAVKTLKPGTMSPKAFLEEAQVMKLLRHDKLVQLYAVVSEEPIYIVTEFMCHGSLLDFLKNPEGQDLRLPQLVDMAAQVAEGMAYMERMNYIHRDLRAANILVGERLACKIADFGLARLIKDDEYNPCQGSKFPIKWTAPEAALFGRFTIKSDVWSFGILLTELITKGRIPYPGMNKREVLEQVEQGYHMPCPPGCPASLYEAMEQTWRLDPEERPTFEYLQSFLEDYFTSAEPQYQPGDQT
compound,measurement,setting,value
CCN1CCN(Cc2ccc(NC(=O)c3ccc(C)c(Oc4ccnc5[nH]ccc45)c3)cc2C(F)(F)F)CC1,"kinase still bound, per cent of control",[1],3%
same,"kinase still bound, per cent of control",[2],1.2%
same,"kinase still bound, per cent of control",[3],2.4%
same,"kinase still bound, per cent of control",[4],0%
same,"kinase still bound, per cent of control",[5],0%
same,"kinase still bound, per cent of control",[6],3.9%
same,"kinase still bound, per cent of control",[7],15%
same,"kinase still bound, per cent of control",[8],5.1%
same,"kinase still bound, per cent of control",[9],2.4%
same,"kinase still bound, per cent of control",[10],0.2%
same,"kinase still bound, per cent of control",[11],1.2%
same,"kinase still bound, per cent of control",[12],12%
same,"kinase still bound, per cent of control",[13],0.35%
same,"kinase still bound, per cent of control",[14],0%
same,"kinase still bound, per cent of control",[15],6.2%
same,"kinase still bound, per cent of control",[16],1.1%
same,"kinase still bound, per cent of control",[17],0.2%
same,"kinase still bound, per cent of control",[18],8.4%
same,"kinase still bound, per cent of control",[19],1.1%
COc1cc(N2CCC(N3CCN(C)CC3)CC2)ccc1Nc1ncc(Cl)c(Nc2ccccc2S(=O)(=O)C(C)C)n1,"kinase still bound, per cent of control",[2],2.8%
same,"kinase still bound, per cent of control",[3],0.15%
same,"kinase still bound, per cent of control",[4],5.4%
same,"kinase still bound, per cent of control",[5],18%
same,"kinase still bound, per cent of control",[20],0%
same,"kinase still bound, per cent of control",[6],40%
same,"kinase still bound, per cent of control",[21],4.5%
same,"kinase still bound, per cent of control",[7],0.15%
same,"kinase still bound, per cent of control",[8],14%
same,"kinase still bound, per cent of control",[22],2.8%
same,"kinase still bound, per cent of control",[23],0.05%
same,"kinase still bound, per cent of control",[24],9.2%
same,"kinase still bound, per cent of control",[25],40%
same,"kinase still bound, per cent of control",[26],40%
same,"kinase still bound, per cent of control",[10],5.8%
same,"kinase still bound, per cent of control",[11],19%
same,"kinase still bound, per cent of control",[12],2.6%
same,"kinase still bound, per cent of control",[13],0.45%
same,"kinase still bound, per cent of control",[27],40%
same,"kinase still bound, per cent of control",[28],18%
same,"kinase still bound, per cent of control",[29],0%
same,"kinase still bound, per cent of control",[30],40%
same,"kinase still bound, per cent of control",[31],40%
same,"kinase still bound, per cent of control",[32],6.2%
same,"kinase still bound, per cent of control",[14],12%
same,"kinase still bound, per cent of control",[33],0.1%
same,"kinase still bound, per cent of control",[34],40%
same,"kinase still bound, per cent of control",[15],3.4%
same,"kinase still bound, per cent of control",[35],40%
same,"kinase still bound, per cent of control",[36],40%
same,"kinase still bound, per cent of control",[16],4.2%
same,"kinase still bound, per cent of control",[37],0%
same,"kinase still bound, per cent of control",[17],0.05%
same,"kinase still bound, per cent of control",[38],0%
same,"kinase still bound, per cent of control",[39],32%
same,"kinase still bound, per cent of control",[40],40%
same,"kinase still bound, per cent of control",[18],0%
same,"kinase still bound, per cent of control",[41],1.8%
same,"kinase still bound, per cent of control",[42],0.15%
same,"kinase still bound, per cent of control",[19],0.6%
CCOc1cc(N2CCC(N3CCCCC3)CC2)ccc1Nc1nc(Nc2ccccc2S(=O)(=O)C(C)C)c2cn[nH]c2n1,"kinase still bound, per cent of control",[1],100%
same,"kinase still bound, per cent of control",[2],82%
same,"kinase still bound, per cent of control",[3],42%
same,"kinase still bound, per cent of control",[4],100%
same,"kinase still bound, per cent of control",[5],100%
same,"kinase still bound, per cent of control",[20],100%
same,"kinase still bound, per cent of control",[6],100%
same,"kinase still bound, per cent of control",[21],100%
same,"kinase still bound, per cent of control",[7],7.7%
same,"kinase still bound, per cent of control",[8],93%
same,"kinase still bound, per cent of control",[22],47%
same,"kinase still bound, per cent of control",[23],77%
same,"kinase still bound, per cent of control",[24],84%
same,"kinase still bound, per cent of control",[25],100%
same,"kinase still bound, per cent of control",[26],92%
same,"kinase still bound, per cent of control",[9],50%
same,"kinase still bound, per cent of control",[10],100%
same,"kinase still bound, per cent of control",[11],67%
same,"kinase still bound, per cent of control",[12],7.2%
same,"kinase still bound, per cent of control",[13],2.4%
same,"kinase still bound, per cent of control",[27],100%
same,"kinase still bound, per cent of control",[28],100%
same,"kinase still bound, per cent of control",[29],100%
same,"kinase still bound, per cent of control",[30],97%
same,"kinase still bound, per cent of control",[31],100%
same,"kinase still bound, per cent of control",[32],7.4%
same,"kinase still bound, per cent of control",[14],22%
same,"kinase still bound, per cent of control",[33],1.8%
same,"kinase still bound, per cent of control",[34],100%
same,"kinase still bound, per cent of control",[15],100%
same,"kinase still bound, per cent of control",[35],100%
same,"kinase still bound, per cent of control",[36],100%
same,"kinase still bound, per cent of control",[16],61%
same,"kinase still bound, per cent of control",[37],74%
same,"kinase still bound, per cent of control",[17],100%
same,"kinase still bound, per cent of control",[38],21%
same,"kinase still bound, per cent of control",[39],100%
same,"kinase still bound, per cent of control",[40],100%
same,"kinase still bound, per cent of control",[18],20%
same,"kinase still bound, per cent of control",[41],100%
same,"kinase still bound, per cent of control",[42],100%
same,"kinase still bound, per cent of control",[19],19%
